According to patent US20100209345A1, “Fluorinated Ligands for Targeting Peripheral Benzodiazepine Receptors” (Australian Nuclear Science & Technology Organisation, priority 2006, published 2010):

Tests used:
[1] = Biodistribution of 18F-labelled tracers in rats; type: in vivo
Summary of the method: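 Sprague-Dawley rats received 18F tracer, and brain and peripheral tissues were analysed at 15 and 30 min and 1 and 4 h post-injection. For specificity, rats were pretreated 5 min beforehand with PK11195 or Ro 5-4864 (PBR) or flumazenil (CBR), each at 1 mg/kg.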

[2] = molecular target: T1, peripheral benzodiazepine receptors (Rattus norvegicus, UniProt P16257); assay: In vivo blocking / competition of tracer uptake by pre-treatment with PBR and CBR ligands; settings: rats; for Tracer uptake after pre-treatment with PK 11195 / Tracer uptake after pre-treatment with Ro 5-4864: PBR-expressing tissues (brain/peripheral organs, adrenals apart); for Tracer uptake after pre-treatment with flumazenil (central benzodiazepine ligand): flumazenil 1 mg/kg 5 min prior to tracer, brain or peripheral organs
T1 construct: high uptake in the tissues which have known PBR sites; from tissue; host or cells: organs of living SD rats (brain and peripheral tissues), in vivo
Summary of the method: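 SD rats received PBR ligands PK11195 or Ro 5-4864, or the CBR ligand flumazenil, at 1 mg/kg 5 min before tracer injection. Brain and peripheral tissue uptake analysed at 15, 30 min, 1 and 4 h p.i.; significance set at p<0.05 and p<0.01 versus normals or controls.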

[3] = SD rats, 15 min, decay correction not stated
[4] = SD rats, 4 hours, decay correction not stated
[5] = rats, 15 min, corrected for decay of 18F
[6] = rats, 15 min, not corrected for decay of 18F
[7] = rats, 30 min, corrected for decay of 18F
[8] = rats, 30 min, not corrected for decay of 18F
[9] = rats, 60 min (1 hour), not corrected for decay of 18F
[10] = rats, 60 min, corrected for decay of 18F
[11] = rats, 4 hours, corrected for decay of 18F
[12] = rats, 4 hours, not corrected for decay of 18F

CCN(CC)C(=O)Cc1c(-c2ccc(OCCF)cc2)nc2ccc(Cl)cn12 [PBR102, 2-(2-(4-(2-fluoroethoxy)phenyl)-6-chloroimidazo[1,2-a]pyridin-3-yl)-N,N-diethylacetamide]
Biodistribution: Bone [1, 3]: 0.4 % ID/g
Biodistribution: Kidney [1, 3]: 4.5 % ID/g
Biodistribution: Olfactory bulbs [1, 3]: 0.56 % ID/g
Biodistribution: Adrenals ([1]; SD rats, 30 min, decay correction not stated): 9 % ID/g
Biodistribution: Adrenals [1, 4]: 11 % ID/g
Biodistribution: Bone [1, 4]: 1.0 % ID/g
Biodistribution: Kidney [1, 4]: 1.3 % ID/g
Biodistribution: Olfactory bulbs [1, 4]: 0.40 % ID/g
Blood activity level / concentration in the blood over the 4 h study period ([1]; SD rats, throughout 15 min to 4 h): 0.20%
Biodistribution: Bone [1, 5]: 0.46 ± 0.04 % ID/g
Biodistribution: Heart [1, 5]: 4.35 ± 0.33 % ID/g
Biodistribution: Lungs [1, 5]: 14.30 ± 1.45 % ID/g
Biodistribution: Skin [1, 5]: 0.24 ± 0.03 % ID/g
Biodistribution: Adrenals [1, 6]: 8.30 ± 2.13 % ID/g
Biodistribution: Bladder [1, 6]: 0.59 ± 0.14 % ID/g
Biodistribution: Blood [1, 6]: 0.25 ± 0.06 % ID/g
Biodistribution: Bone [1, 6]: 0.56 ± 0.07 % ID/g
Biodistribution: Brain [1, 6]: 0.24 ± 0.03 % ID/g
Biodistribution: GIT [1, 6]: 0.82 ± 0.11 % ID/g
Biodistribution: Heart [1, 6]: 5.23 ± 0.33 % ID/g
Biodistribution: Kidney [1, 6]: 3.90 ± 0.53 % ID/g
Biodistribution: Liver [1, 6]: 0.75 ± 0.21 % ID/g
Biodistribution: Lungs [1, 6]: 17.25 ± 1.70 % ID/g
Biodistribution: Muscle [1, 6]: 0.49 ± 0.03 % ID/g
Biodistribution: Olfactory bulbs [1, 6]: 0.68 ± 0.12 % ID/g
Biodistribution: Pancreas [1, 6]: 1.74 ± 0.22 % ID/g
Biodistribution: Skin [1, 6]: 0.29 ± 0.05 % ID/g
Biodistribution: Spleen [1, 6]: 5.35 ± 0.89 % ID/g
Biodistribution: Stomach [1, 6]: 0.80 ± 0.19 % ID/g
Biodistribution: Testes [1, 6]: 0.22 ± 0.02 % ID/g
Biodistribution: Thymus [1, 6]: 0.68 ± 0.17 % ID/g
Biodistribution: Thyroid [1, 6]: 7.74 ± 1.90 % ID/g
Biodistribution: Bone [1, 7]: 0.52 ± 0.05 % ID/g
Biodistribution: Heart [1, 7]: 4.44 ± 0.26 % ID/g
Biodistribution: Lungs [1, 7]: 12.10 ± 1.98 % ID/g
Biodistribution: Skin [1, 7]: 0.31 ± 0.03 % ID/g
Biodistribution: Adrenals [1, 8]: 9.75 ± 1.53 % ID/g
Biodistribution: Bladder [1, 8]: 0.67 ± 0.16 % ID/g
Biodistribution: Blood [1, 8]: 0.21 ± 0.03 % ID/g
Biodistribution: Bone [1, 8]: 0.64 ± 0.12 % ID/g
Biodistribution: Brain [1, 8]: 0.20 ± 0.04 % ID/g
Biodistribution: GIT [1, 8]: 1.07 ± 0.26 % ID/g
Biodistribution: Heart [1, 8]: 5.41 ± 0.71 % ID/g
Biodistribution: Kidney [1, 8]: 3.95 ± 1.01 % ID/g
Biodistribution: Liver [1, 8]: 0.63 ± 0.21 % ID/g
Biodistribution: Lungs [1, 8]: 14.80 ± 3.67 % ID/g
Biodistribution: Muscle [1, 8]: 0.46 ± 0.08 % ID/g
Biodistribution: Olfactory bulbs [1, 8]: 0.44 ± 0.05 % ID/g
Biodistribution: Pancreas [1, 8]: 1.42 ± 0.45 % ID/g
Biodistribution: Skin [1, 8]: 0.37 ± 0.05 % ID/g
Biodistribution: Spleen [1, 8]: 4.68 ± 0.90 % ID/g
Biodistribution: Stomach [1, 8]: 0.71 ± 0.21 % ID/g
Biodistribution: Testes [1, 8]: 0.29 ± 0.05 % ID/g
Biodistribution: Thymus [1, 8]: 0.81 ± 0.06 % ID/g
Biodistribution: Thyroid [1, 8]: 10.70 ± 2.08 % ID/g
Biodistribution: Adrenals [1, 9]: 7.88 ± 1.86 % ID/g
Biodistribution: Bladder [1, 9]: 0.60 ± 0.11 % ID/g
Biodistribution: Blood [1, 9]: 0.20 ± 0.03 % ID/g
Biodistribution: Bone [1, 9]: 0.73 ± 0.13 % ID/g
Biodistribution: Brain [1, 9]: 0.20 ± 0.03 % ID/g
Biodistribution: GIT [1, 9]: 1.09 ± 0.13 % ID/g
Biodistribution: Heart [1, 9]: 5.32 ± 0.74 % ID/g
Biodistribution: Kidney [1, 9]: 3.10 ± 0.51 % ID/g
Biodistribution: Liver [1, 9]: 0.40 ± 0.04 % ID/g
Biodistribution: Lungs [1, 9]: 13.44 ± 2.71 % ID/g
Biodistribution: Muscle [1, 9]: 0.39 ± 0.07 % ID/g
Biodistribution: Olfactory bulbs [1, 9]: 0.52 ± 0.05 % ID/g
Biodistribution: Pancreas [1, 9]: 0.88 ± 0.18 % ID/g
Biodistribution: Skin [1, 9]: 0.43 ± 0.07 % ID/g
Biodistribution: Spleen [1, 9]: 3.89 ± 0.54 % ID/g
Biodistribution: Stomach [1, 9]: 0.52 ± 0.13 % ID/g
Biodistribution: Testes [1, 9]: 0.37 ± 0.06 % ID/g
Biodistribution: Thymus [1, 9]: 0.91 ± 0.16 % ID/g
Biodistribution: Thyroid [1, 9]: 11.55 ± 4.24 % ID/g
Biodistribution: Bone [1, 10]: 0.64 ± 0.07 % ID/g
Biodistribution: Heart [1, 10]: 4.62 ± 0.27 % ID/g
Biodistribution: Lungs [1, 10]: 11.63 ± 1.52 % ID/g
Biodistribution: Skin [1, 10]: 0.37 ± 0.03 % ID/g
Biodistribution: Bone [1, 11]: 1.01 ± 0.09 % ID/g
Biodistribution: Heart [1, 11]: 2.82 ± 0.15 % ID/g
Biodistribution: Lungs [1, 11]: 8.09 ± 1.14 % ID/g
Biodistribution: Skin [1, 11]: 0.49 ± 0.03 % ID/g
Biodistribution: Adrenals [1, 12]: 9.77 ± 2.42 % ID/g
Biodistribution: Bladder [1, 12]: 1.08 ± 0.14 % ID/g
Biodistribution: Blood [1, 12]: 0.26 ± 0.03 % ID/g
Biodistribution: Bone [1, 12]: 1.22 ± 0.22 % ID/g
Biodistribution: Brain [1, 12]: 0.23 ± 0.03 % ID/g
Biodistribution: GIT [1, 12]: 1.43 ± 0.34 % ID/g
Biodistribution: Heart [1, 12]: 3.38 ± 0.44 % ID/g
Biodistribution: Kidney [1, 12]: 1.61 ± 0.29 % ID/g
Biodistribution: Liver [1, 12]: 0.34 ± 0.05 % ID/g
Biodistribution: Lungs [1, 12]: 10.26 ± 1.09 % ID/g
Biodistribution: Muscle [1, 12]: 0.27 ± 0.03 % ID/g
Biodistribution: Olfactory bulbs [1, 12]: 0.50 ± 0.13 % ID/g
Biodistribution: Pancreas [1, 12]: 0.49 ± 0.12 % ID/g
Biodistribution: Skin [1, 12]: 0.59 ± 0.06 % ID/g
Biodistribution: Spleen [1, 12]: 2.29 ± 0.50 % ID/g
Biodistribution: Stomach [1, 12]: 0.49 ± 0.13 % ID/g
Biodistribution: Testes [1, 12]: 0.52 ± 0.06 % ID/g
Biodistribution: Thymus [1, 12]: 1.21 ± 0.27 % ID/g
Biodistribution: Thyroid [1, 12]: 8.29 ± 3.22 % ID/g
Tracer uptake after pre-treatment with PK 11195 ([2]; PK 11195 1 mg/kg 5 min prior to tracer): decreased
Tracer uptake after pre-treatment with PK 11195 ([2]; PK 11195 1 mg/kg 5 min prior to tracer, listed as [^18F]PBR102): blocking effect
Tracer uptake in the adrenals after pre-treatment with PK 11195 ([2]; PK 11195 1 mg/kg 5 min prior to tracer, adrenals): increase
Tracer uptake after pre-treatment with Ro 5-4864 ([2]; Ro 5-4864 1 mg/kg 5 min prior to tracer): decreased
Tracer uptake after pre-treatment with Ro 5-4864 ([2]; Ro 5-4864 1 mg/kg 5 min prior to tracer, listed as [^18F]PBR102): blocking effect
Tracer uptake in the adrenals after pre-treatment with Ro 5-4864 ([2]; Ro 5-4864 1 mg/kg 5 min prior to tracer, adrenals): increase
Tracer uptake after pre-treatment with flumazenil (central benzodiazepine ligand) [2]: no effect
Tracer uptake after pre-treatment with flumazenil (central benzodiazepine ligand) ([2]; listed as [^18F]PBR102): does not reduce
Tracer uptake after pre-treatment with the non-radioactive analogue ([2]; non-radioactive analogue 1 mg/kg, PBR-expressing tissues): blocking effect
